From patent US12679878B2, “CRF2 receptor agonists and their use in therapy” (SANOFI, priority 2020, dated 2026) come the findings set out here.

Each structure is given as a SMILES string. Read-outs that look alike come from different tables or passages of the source. Starred links: 1 amine or outer side, 2 acyl side, 3 side chain; linkers in the order of their positions; H or OH if unused. Non-standard residues stand in square brackets, D forms with d. Residues, ends and D or L forms follow the SMILES beside them. Groups on a side chain read outwards from the residue. *: point of attachment. C18 diacid = O=C(O)CCCCCCCCCCCCCCCCC(=O)*; γGlu = O=C(O)[C@H](CCC(=O)[*:2])N[*:1]; Palmitoyl = CCCCCCCCCCCCCCCC(=O)*; AEEA = NCCOCCOCC(=O)O; Aib = CC(C)(N)C(=O)O

In one assay the target is T1, human CRF2α receptor (Homo sapiens, UniProt Q13324).
T1 construct: expressed in transfected cells; host or cells: TeloHEAC
T1 sequence (Q13324 1-411): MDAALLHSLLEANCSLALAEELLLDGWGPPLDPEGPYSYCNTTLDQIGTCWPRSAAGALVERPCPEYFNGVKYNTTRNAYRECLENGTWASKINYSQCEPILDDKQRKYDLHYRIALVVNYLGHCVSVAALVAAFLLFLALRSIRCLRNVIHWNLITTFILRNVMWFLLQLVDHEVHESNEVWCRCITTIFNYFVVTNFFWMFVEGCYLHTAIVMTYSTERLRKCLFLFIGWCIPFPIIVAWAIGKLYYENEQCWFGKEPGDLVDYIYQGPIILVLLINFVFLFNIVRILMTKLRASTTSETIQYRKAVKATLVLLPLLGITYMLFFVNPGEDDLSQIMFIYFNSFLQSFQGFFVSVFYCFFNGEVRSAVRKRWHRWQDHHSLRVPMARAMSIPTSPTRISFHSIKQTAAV
In words: cAMP agonism at human CRF2 α receptor in TeloHEAC cells (Example 7). Format: cell-based. Conditions: cAMP HTRF, TeloHEAC cells stably expressing human CRF2 α. Put shortly: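 Cryopreserved cells are thawed, washed and resuspended in IBMX-containing (2 mM) HEPES-buffered HBSS with or without 0.1% HSA. Compound incubation runs 30 min at room temperature with 2000 cells per well, then cAMP is measured by time-resolved FRET. Potency is expressed as EC50, efficacy relative to urocortin 2 at 1000 nM.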

The next assay deals with T2, CRF1R receptor (Homo sapiens, UniProt P34998).
T2 construct: host or cells: CHO-K1 clone 2
T2 sequence (P34998 24-415): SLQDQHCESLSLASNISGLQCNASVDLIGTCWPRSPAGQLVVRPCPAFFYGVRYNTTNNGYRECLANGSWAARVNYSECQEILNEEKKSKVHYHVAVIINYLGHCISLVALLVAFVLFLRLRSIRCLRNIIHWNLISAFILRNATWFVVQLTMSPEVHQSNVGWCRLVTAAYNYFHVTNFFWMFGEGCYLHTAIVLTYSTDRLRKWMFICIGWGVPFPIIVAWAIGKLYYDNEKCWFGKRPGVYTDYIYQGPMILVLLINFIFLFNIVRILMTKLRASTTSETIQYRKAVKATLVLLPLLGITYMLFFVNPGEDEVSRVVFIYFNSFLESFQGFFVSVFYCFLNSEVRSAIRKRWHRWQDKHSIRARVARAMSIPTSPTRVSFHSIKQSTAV
The experiment in a line: cAMP activity at anti-target CRF1R, CRF1R-overexpression CHO cell line (Example 9). Format: cell-based. Conditions: CRF1R-overexpression CHO cell line; for EC50: 0% HSA; for Emax: read-out: Emax (%). As to the method:
Cells were grown in a T175 culture flask placed at 37° C. to near confluence in medium (DMEM/10% FBS) and collected in 2 ml vials in cell culture medium containing 10% DMSO in a concentration of 10-50 million cells/ml. Each vial contained 1.8 ml cells. The vials were slowly frozen to −80° C. in isopropanol and then transferred in liquid nitrogen for storage. Prior to use, frozen cells were thawed quickly at 37° C. and washed (5 min at 900 rpm) with 20 ml cell buffer (1×HBSS; 20 mM HEPES; 0% or 0.1% HSA). Cells were resuspended in assay buffer (cell buffer plus 2 mM IBMX) and adjusted to a cell density of 1 million cells/ml. For measurement, 5 μl cells (final […]) and 5 μL of test compound were added to a 384-well plate, followed by incubation for 30 minutes at room temperature.
The CAMP content of cells was determined using a kit from Cisbio Corp. (cat. no. 62AM4PEC) based on HTRF (Homogenous Time Resolved Fluorescence). […] The percent activity value (E %) was calculated by setting 1000 nM of urocortin 2 (UCN2) as 100%.
A CRF1R-overexpression CHO cell line was used in this study.

[1] abbreviates: 0% HSA, read-out: EC50 [nM], 0% HSA.
[2] abbreviates: 0.1% HSA, read-out: EC50 [nM], 0.1% HSA.

Turning to `CCCCCCCCCCCCCCCC(=O)N[C@@H](CCC(=O)NCCCC[C@H](NC(=O)[C@H](CC(C)C)NC(=O)CNC(=O)[C@@H](NC(=O)[C@@H]1CCCN1C(=O)[C@@H](NC(=O)[C@H](CC(=O)O)NC(=O)[C@H](CC(C)C)NC(=O)[C@H](CO)NC(=O)[C@H](CC(C)C)NC(=O)[C@@H](NC(=O)[C@@H](N)[C@@H](C)CC)C(C)C)C(C)C)[C@@H](C)CC)C(=O)N[C@@H](CCC(N)=O)C(=O)N[C@@H](CCCCN)C(=O)N[C@@H](CC(C)C)C(=O)N[C@@H](CC(C)C)C(=O)N[C@@H](CCCCN)C(=O)N[C@@H](CCC(N)=O)C(=O)N[C@@H](CCC(N)=O)C(=O)N[C@@H](CCCNC(=N)N)C(=O)N[C@@H](CCC(N)=O)C(=O)N[C@@H](CCCNC(=N)N)C(=O)N[C@@H](CCCCN)C(=O)N[C@@H](CCC(=O)O)C(=O)N[C@@H](CCCNC(=N)N)C(=O)N[C@@H](CCC(N)=O)C(=O)N[C@@H](CCC(N)=O)C(=O)N[C@@H](C)C(=O)N[C@@H](CCC(=O)O)C(=O)N[C@H](C(=O)N[C@@H](CC(N)=O)C(=O)N[C@@H](C)C(=O)N[C@@H](CCCNC(=N)N)C(=O)N[C@H](C(=O)N[C@@H](CC(C)C)C(=O)N[C@@H](C)C(=O)N[C@@H](CCCNC(=N)N)C(=O)N[C@H](C(N)=O)C(C)C)[C@@H](C)CC)[C@@H](C)O)C(=O)O` [compound 5] (H-IVLSLDVPIGLK([γGlu-Palmitoyl])QKLLKQQRQRKERQQAETNARILARV-NH2; N-terminus assumed), the EC50 at human CRF2α receptor (setting [1]) is 0.04 nM. Also, at CRF1R receptor, the EC50 is above 1000 nM and the Emax worked out at 37.4%.

Take `CCCCCCCCCCCCCCCC(=O)N[C@@H](CCC(=O)NCCCC[C@H](NC(=O)[C@@H](NC(=O)[C@H](CCCCN)NC(=O)[C@@H](NC(=O)[C@@H]1CCCN1C(=O)[C@@H](NC(=O)[C@H](CC(=O)O)NC(=O)[C@H](CC(C)C)NC(=O)[C@H](CO)NC(=O)[C@H](CC(C)C)NC(=O)[C@@H](NC(=O)[C@@H](N)Cc1ccccc1)[C@@H](C)O)C(C)C)[C@@H](C)O)[C@@H](C)CC)C(=O)N[C@@H](CCC(N)=O)C(=O)N[C@@H](CCCCN)C(=O)N[C@@H](CC(C)C)C(=O)N[C@@H](CC(C)C)C(=O)N[C@@H](CCCCN)C(=O)N[C@@H](CCC(N)=O)C(=O)N[C@@H](CCC(=O)O)C(=O)N[C@@H](CCCCN)C(=O)N[C@@H](CCC(N)=O)C(=O)N[C@@H](CCCNC(=N)N)C(=O)N[C@@H](CCCCN)C(=O)N[C@@H](CCC(N)=O)C(=O)N[C@@H](CCCCN)C(=O)N[C@@H](CCC(N)=O)C(=O)N[C@@H](CCC(N)=O)C(=O)N[C@@H](C)C(=O)N[C@@H](CCCCN)C(=O)N[C@H](C(=O)N[C@@H](CC(N)=O)C(=O)N[C@@H](C)C(=O)N[C@@H](CCCCN)C(=O)N[C@H](C(=O)N[C@@H](CC(C)C)C(=O)N[C@@H](C)C(=O)N[C@@H](CCCNC(=N)N)C(=O)N[C@H](C(N)=O)C(C)C)[C@@H](C)CC)[C@@H](C)O)C(=O)O` [compound 12] (H-FTLSLDVPTKIK([γGlu-Palmitoyl])QKLLKQEKQRKQKQQAKTNAKILARV-NH2): at human CRF2α receptor (setting [1]), the EC50 was determined as 0.09 nM. Moreover, on CRF1R receptor, the EC50 is above 1000 nM and the Emax was determined as 41.8%.

In the case of `CCCCCCCCCCCCCCCC(=O)N[C@@H](CCC(=O)NCCCC[C@H](NC(=O)[C@H](CC(C)C)NC(=O)[C@H](CCCCN)NC(=O)[C@@H](NC(=O)[C@@H]1CCCN1C(=O)[C@H](NC(=O)[C@H](CC(=O)O)NC(=O)[C@H](CC(C)C)NC(=O)[C@H](CO)NC(=O)[C@H](CC(C)C)NC(=O)[C@@H](NC(=O)[C@@H](N)[C@@H](C)CC)C(C)C)C(C)C)[C@@H](C)O)C(=O)N[C@@H](CCC(N)=O)C(=O)N[C@@H](CCCCN)C(=O)N[C@@H](CC(C)C)C(=O)N[C@@H](CC(C)C)C(=O)N[C@@H](CCCCN)C(=O)N[C@@H](CCC(N)=O)C(=O)N[C@@H](CCC(=O)O)C(=O)N[C@@H](CCCNC(=N)N)C(=O)N[C@@H](CCC(N)=O)C(=O)N[C@@H](CCCNC(=N)N)C(=O)N[C@@H](CCCCN)C(=O)N[C@@H](CCC(=O)O)C(=O)NC(C)(C)C(=O)N[C@@H](CCC(=O)O)C(=O)N[C@@H](CCC(N)=O)C(=O)N[C@@H](C)C(=O)N[C@@H](CCC(=O)O)C(=O)N[C@@H](CCCCN)C(=O)N[C@@H](CC(N)=O)C(=O)N[C@@H](CCCCN)C(=O)N[C@@H](CCCNC(=N)N)C(=O)N[C@H](C(=O)N[C@@H](CC(C)C)C(=O)N[C@@H](CCC(=O)O)C(=O)N[C@@H](CCCNC(=N)N)C(=O)N[C@H](C(N)=O)C(C)C)[C@@H](C)CC)C(=O)O` [compound 21] (H-IVLSLD[dV]PTKLK([γGlu-Palmitoyl])QKLLKQERQRKE[Aib]EQAEKNKRILERV-NH2; N-terminus assumed), the EC50 at human CRF2α receptor (setting [1]) came out at 0.02 nM. Moreover, the Emax at CRF1R receptor was 59.2%.

Turning to `CC[C@H](C)[C@H](NC(C)=O)C(=O)N[C@H](C(=O)N[C@@H](CC(C)C)C(=O)N[C@@H](CO)C(=O)N[C@@H](CC(C)C)C(=O)N[C@@H](CC(=O)O)C(=O)N[C@@H](C(=O)N1CCC[C@H]1C(=O)N[C@H](C(=O)N[C@@H](CCCCN)C(=O)N[C@@H](CC(C)C)C(=O)N[C@@H](CCCCNC(=O)COCCOCCNC(=O)COCCOCCNC(=O)CC[C@H](NC(=O)CCCCCCCCCCCCCCCCC(=O)O)C(=O)O)C(=O)N[C@@H](CCC(N)=O)C(=O)N[C@H](C(=O)N[C@@H](CC(C)C)C(=O)N[C@@H](CC(C)C)C(=O)N[C@@H](CCC(=O)O)C(=O)N[C@@H](CCC(N)=O)C(=O)N[C@@H](CCC(=O)O)C(=O)N[C@@H](CCCNC(=N)N)C(=O)N[C@@H](CCC(N)=O)C(=O)N[C@@H](CCC(=O)O)C(=O)NC(C)(C)C(=O)N[C@@H](CCC(=O)O)C(=O)N[C@@H](CCCNC(=N)N)C(=O)N[C@@H](CCC(=O)O)C(=O)N[C@@H](CCC(N)=O)C(=O)N[C@@H](C)C(=O)N[C@@H](CCC(=O)O)C(=O)N[C@H](C(=O)N[C@@H](CC(N)=O)C(=O)N[C@@H](CCCCN)C(=O)N[C@@H](CCC(N)=O)C(=O)N[C@H](C(=O)N[C@@H](CC(C)C)C(=O)N[C@@H](CCC(=O)O)C(=O)N[C@@H](CCC(N)=O)C(=O)N[C@H](C(N)=O)C(C)C)[C@@H](C)CC)[C@@H](C)O)[C@@H](C)CC)[C@@H](C)CC)C(C)C)C(C)C` [compound 160] (Ac-IVLSLD[dV]PIKLK([AEEA-AEEA-γGlu-C18 diacid])QILLEQERQE[Aib]EREQAETNKQILEQV-NH2), the EC50 was 8.56 nM on human CRF2α receptor (setting [1]), 28.9 nM at human CRF2α receptor (setting [2]) and above 1000 nM on CRF1R receptor. Also, the Emax on CRF1R receptor worked out at 20.8%.

Take `CC[C@H](C)[C@H](NC(C)=O)C(=O)N[C@H](C(=O)N[C@@H](CC(C)C)C(=O)N[C@@H](CO)C(=O)N[C@@H](CC(C)C)C(=O)N[C@@H](CC(=O)O)C(=O)N[C@@H](C(=O)N1CCC[C@H]1C(=O)N[C@H](C(=O)N[C@@H](CCCCN)C(=O)N[C@@H](CC(C)C)C(=O)N[C@@H](CCCCNC(=O)COCCOCCNC(=O)COCCOCCNC(=O)CC[C@H](NC(=O)CCCCCCCCCCCCCCCCC(=O)O)C(=O)O)C(=O)N[C@@H](CCC(N)=O)C(=O)N[C@H](C(=O)N[C@@H](CC(C)C)C(=O)N[C@@H](CC(C)C)C(=O)N[C@@H](CCC(=O)O)C(=O)N[C@@H](CCC(N)=O)C(=O)N[C@@H](CCC(=O)O)C(=O)N[C@@H](CCCNC(=N)N)C(=O)N[C@@H](CCC(N)=O)C(=O)N[C@@H](CCC(=O)O)C(=O)NC(C)(C)C(=O)N[C@@H](CCC(=O)O)C(=O)N[C@@H](CCCNC(=N)N)C(=O)N[C@@H](CCC(=O)O)C(=O)N[C@@H](CCC(N)=O)C(=O)N[C@@H](C)C(=O)N[C@@H](CCC(=O)O)C(=O)N[C@@H](CCCCN)C(=O)N[C@@H](CC(N)=O)C(=O)N[C@@H](CCC(=O)O)C(=O)N[C@@H](CCC(N)=O)C(=O)N[C@H](C(=O)N[C@@H](CC(C)C)C(=O)N[C@@H](CCC(=O)O)C(=O)N[C@@H](CCC(N)=O)C(=O)N[C@H](C(N)=O)C(C)C)[C@@H](C)CC)[C@@H](C)CC)[C@@H](C)CC)C(C)C)C(C)C` [compound 161] (Ac-IVLSLD[dV]PIKLK([AEEA-AEEA-γGlu-C18 diacid])QILLEQERQE[Aib]EREQAEKNEQILEQV-NH2): the values for the EC50 on human CRF2α receptor (setting [1]), at human CRF2α receptor (setting [2]) and at CRF1R receptor were 36 nM, 977 nM and above 1000 nM, respectively. The Emax at CRF1R receptor was determined as 3.42%.
